In patent publication US20200399390A1, “METHODS FOR PRODUCING LYMPHOCYTE PROGENITORS” (MURDOCH CHILDRENS RESEARCH INSTITUTE, priority 2017, published 2020):

Test system: B-lymphocytes
Assay: B-cell progenitor production by co-culture on OP9 stromal cells
Format: cell-based, human
Method: Co-Culture Systems Involving DLL4 Stromal or OP9 Stromal Cells for Production of B-Cell Progenitors
Co-culture systems generally used alpha-MEM medium supplemented with 10˜20% fetal calf serum (FCS), Penicillin Streptomycin, L-glutamine and 2-Mercaptoethanol (0.1 mM).
Stromal cells were seeded into an appropriate number of wells of a multi-well plate and allowed to grow until they reached confluency.
At around day 15, cells were transferred onto confluent layers of OP9 or OP9-DLL4 stromal cells and cultured in the following conditions:
Medium: alpha-MEM medium supplemented with 5˜10% FCS, penicillin streptomycin, L-glutamine and 2-mercaptoethanol (0.1 mM)
Cytokines: SCF (50 ng/mL) and DAPT (10 uM).
Media was changed every 4˜5 days.
Every 7˜10 days, the culture was passaged onto new wells coated with fresh layers of stromal cells.
As an alternative to using OP9 stromal cells expressing DLL4 (DLL4-0P9) for B-cell progenitor production according to Example 1, which requires addition of a NOTCH1 inhibitor such as DAPT to the culture medium to permit B-cell development, OP9 stromal cells (without DLL4) can also be used (FIG. 20). This system generates a larger number of B-cell progenitors (FIG. 20B), a small fraction of which (˜1%) are IgM^+ (FIG. 20B). This frequency of IgM^+ cells is similar to that seen with cord blood CD34^+ cells cultured in similar systems.

C[C@H](NC(=O)Cc1cc(F)cc(F)c1)C(=O)N[C@H](C(=O)OC(C)(C)C)c1ccccc1 [DAPT, N—[N-(3,5-difluorophenacetyl)-L-alanyl]-S-phenylglycine t-butyl ester]
effect of presence of DAPT on development of B-lymphocytes (OP9 stromal cell co-culture, SCF (50 ng/mL) and DAPT (10 uM), from around day 15): enhances the development of B-lymphocytes | effect of addition of DAPT on B-cell progenitor generation (OP9 stromal cells (without DLL4), FIG. 20): further enhanced
